Values quoted from earlier work in article PMC7508583, “Discovery and Preclinical Development of Antigiardiasis Fumagillol Derivatives” (Antimicrobial Agents and Chemotherapy, 2020).

Tests used:
[1] = system: G. lamblia GS trophozoites; design: method as in PMID 21078930, PMID 25267663; conditions: read-out: IC50 against assemblage B GS strain; cited from earlier work
[2] = system: G. lamblia WB trophozoites; design: method as in PMID 21078930, PMID 25267663; conditions: read-out: IC50 against assemblage A WB strain; cited from earlier work

## CO[C@@H]1[C@H](OC(=O)/C=C/C=C/C=C/C=C/C(=O)O)CC[C@]2(CO2)[C@H]1[C@@]1(C)O[C@@H]1CC=C(C)C [Fumagillin, reference compound]
[1]
  IC50: 2 nM
[2]
  IC50: 10 nM
